In assay [1] the target is delta opioid receptor (mouse vas deferens). The assay can be described thus: Mouse vas deferens (MVD) bioassay, delta agonist/antagonist activity. The protocol: The delta agonist/antagonist activity of the compounds of the present invention is determined in the mouse vas deferens (MVD) bioassay as described below.
Vasa deferentia were obtained from CD-1 mice and were suspended in a Mg^2+ -free Krebs buffer at 37° C. The tissues were electrically stimulated with pulse trains having the following parameters: train duration 50 ms, stimulus duration 2 ms, frequency of stimuli 50 Hz, maximal voltage 60-70 V, train frequency 0.1 Hz. Concentration response curves for each compounds were constructed cumulatively. Linear regression analysis and IC50 concentrations were evaluated according to Tallarida and Murray (Manual of Pharmacological Calculations, Springer Verlag N.Y., 1981).

Assay [2] addresses T1, kappa opioid receptor (Mus musculus, UniProt P33534).
T1 construct: Mouse brain membranes were prepared as described by; from tissue; host or cells: mouse brain membranes
The assay can be described thus: Radioligand binding, kappa opioid receptor ([3H]-U69593, mouse brain membranes). Particulars: selectivity ratio, kappa vs delta. The protocol:
(§1) Mouse brain membranes were prepared as described by Kosteriitz (Br. J. Pharmacol., 1981, 73, 939.). […] The binding of the mu ligand [^3 H]-DAMGO (Eur. J. Pharmacol., 1989, 166, 213) and of the kappa ligand [^3 H]-U69593 (Excerpta Medica, 1990, 211) were carried out at 0.5 nM. The non-specific binding was determined in presence of naloxone (10 μM) for all tritiated ligands. […] The IC50 obtained were used to calculate the inhibitory constants (Ki) accordingly to the Cheng and Prusoff relation (Biochem. Pharmacol., 1973, 22, 3099).

Assay [3] deals with T2, delta opioid receptor (Mus musculus, UniProt P32300).
T2 construct: Mouse brain membranes were prepared as described by; from tissue; host or cells: mouse brain membranes
T2 sequence (P32300 whole entry): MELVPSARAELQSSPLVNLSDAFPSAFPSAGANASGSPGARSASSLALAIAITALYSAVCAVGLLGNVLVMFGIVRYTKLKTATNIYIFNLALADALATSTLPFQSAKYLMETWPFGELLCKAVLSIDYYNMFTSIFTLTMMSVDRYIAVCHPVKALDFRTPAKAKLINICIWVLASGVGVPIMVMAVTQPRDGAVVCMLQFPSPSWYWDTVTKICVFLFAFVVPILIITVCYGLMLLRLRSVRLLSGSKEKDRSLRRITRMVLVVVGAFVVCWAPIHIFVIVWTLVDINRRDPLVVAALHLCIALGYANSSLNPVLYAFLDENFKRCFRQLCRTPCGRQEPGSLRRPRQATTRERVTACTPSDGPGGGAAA
The assay can be described thus: Radioligand binding, delta opioid receptor ([3H]-DADLE, mouse brain membranes). Particulars: [3H]-DADLE binding, 1.3 nM, with 40 nM unlabelled DAMGO. The protocol:
as §1

Assay [4] deals with T3, mu opioid receptor (Mus musculus, UniProt P42866).
T3 construct: Mouse brain membranes were prepared as described by; from tissue; host or cells: mouse brain membranes
T3 sequence (P42866 whole entry): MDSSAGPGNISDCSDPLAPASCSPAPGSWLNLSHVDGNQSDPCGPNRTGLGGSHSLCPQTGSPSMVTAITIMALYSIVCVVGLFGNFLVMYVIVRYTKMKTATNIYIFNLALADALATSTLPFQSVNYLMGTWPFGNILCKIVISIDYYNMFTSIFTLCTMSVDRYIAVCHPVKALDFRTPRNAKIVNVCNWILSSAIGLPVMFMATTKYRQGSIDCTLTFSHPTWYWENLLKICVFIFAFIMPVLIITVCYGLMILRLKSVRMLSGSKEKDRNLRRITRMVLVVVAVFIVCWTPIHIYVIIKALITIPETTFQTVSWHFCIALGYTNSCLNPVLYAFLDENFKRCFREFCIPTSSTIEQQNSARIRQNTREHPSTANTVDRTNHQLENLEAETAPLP
The assay can be described thus: Radioligand binding, mu opioid receptor ([3H]-DAMGO, mouse brain membranes). The settings on record: selectivity ratio, mu vs delta. The protocol: as §1

The source of these data is patent US5981540A, “Heterocycle-condensed morphinoid derivatives” (SmithKline Beecham Farmaceutici S.P.A., priority 1994, dated 1999).

Molecules are shown by their SMILES. Where a name gives a salt, the structure may show the parent alone.

T1 sequence (P33534 whole entry): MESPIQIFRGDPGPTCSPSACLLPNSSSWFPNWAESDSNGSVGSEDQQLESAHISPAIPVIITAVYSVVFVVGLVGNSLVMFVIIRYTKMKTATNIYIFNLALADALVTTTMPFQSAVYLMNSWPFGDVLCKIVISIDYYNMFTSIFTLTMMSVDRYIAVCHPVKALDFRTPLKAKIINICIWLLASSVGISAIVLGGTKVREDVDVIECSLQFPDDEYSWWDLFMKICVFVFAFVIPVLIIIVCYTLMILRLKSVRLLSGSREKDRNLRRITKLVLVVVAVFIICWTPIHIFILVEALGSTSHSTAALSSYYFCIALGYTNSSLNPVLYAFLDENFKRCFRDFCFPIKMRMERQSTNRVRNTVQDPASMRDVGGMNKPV

In the case of `CCN(CC)C(=O)c1[nH]c2c(c1C)C[C@H]1[C@H]3Cc4ccc(OC)c5c4[C@@]1(CCN3C)[C@H]2O5` [Example 7, [8R-(4bS*,8α,8aβ,12bβ)]-11-Diethylaminocarbonyl-7,10-dimethyl-1-methoxy-5,6,7,8,12,12b-hexahyro-(9H)-4,8-methanobenzofuro[3,2-e]pyrrolo[2,3-g]isoquinoline hydrochloride], the 50% inhibitory concentration (IC50) in assay [1] (electrically stimulated mouse vas deferens, 37° C.) came to 25 nM. The “shift of the dose-response curve by NTI (selective antagonism)” value in assay [1] (in presence of 30 nM of NTI (naltrindole), MVD) is 10 fold. Besides, the “Ki kappa/Ki delta” value in assay [2] came to 2259. Also, the Ki in assay [3] came to 1.59 nM. Besides, the “Ki mu/Ki delta” value in assay [4] is reported as 218.
